Source: patent publication US20210220408A1, “ARYL HYDROCARBON RECEPTOR ANTAGONISTS AND METHODS OF USE” (Magenta Therapeutics Inc., priority 2018, published 2021)

Assays:
[1] = system: mobilized peripheral blood CD34+ cells; assay: CD34+ expansion assay; type: cell-based; settings: Homo sapiens; read-out: CD34 Frequency EC50
Procedure: Approximately 3,000 mobilized peripheral blood CD34+ cells were plated per well in 384-well plate at a final volume of 45 μL in HSC growth media (SFEM supplemented with Pen/Strep, 50 ng/mL FLT3L, TPO, SCF and IL-6). Serial dilutions were made in HSC growth media with a top final concentration of 10 μM. 5 μL 10× stock was added to each well. The plate was gently tapped on all sides and incubated for 7 days at 37° C./5% CO2. On day 7, the media was aspirated on a Biotek plate washer and 30 μL staining solution was added to the cells with antibodies against CD34-PE, CD90-APC, CD45RA-PE-CF594 in PBS. Cells were washed once in PBS and resuspended in 80 μL for final volume. 40 μL was acquired by flow cytometry (BD Celesta).

[2] = target: T1, aryl hydrocarbon receptor (AHR) (Homo sapiens, UniProt P35869); assay: DRE-Luciferase reporter high-throughput screen (AHR antagonist, VAF347-activated)
T1 sequence (P35869 11-848): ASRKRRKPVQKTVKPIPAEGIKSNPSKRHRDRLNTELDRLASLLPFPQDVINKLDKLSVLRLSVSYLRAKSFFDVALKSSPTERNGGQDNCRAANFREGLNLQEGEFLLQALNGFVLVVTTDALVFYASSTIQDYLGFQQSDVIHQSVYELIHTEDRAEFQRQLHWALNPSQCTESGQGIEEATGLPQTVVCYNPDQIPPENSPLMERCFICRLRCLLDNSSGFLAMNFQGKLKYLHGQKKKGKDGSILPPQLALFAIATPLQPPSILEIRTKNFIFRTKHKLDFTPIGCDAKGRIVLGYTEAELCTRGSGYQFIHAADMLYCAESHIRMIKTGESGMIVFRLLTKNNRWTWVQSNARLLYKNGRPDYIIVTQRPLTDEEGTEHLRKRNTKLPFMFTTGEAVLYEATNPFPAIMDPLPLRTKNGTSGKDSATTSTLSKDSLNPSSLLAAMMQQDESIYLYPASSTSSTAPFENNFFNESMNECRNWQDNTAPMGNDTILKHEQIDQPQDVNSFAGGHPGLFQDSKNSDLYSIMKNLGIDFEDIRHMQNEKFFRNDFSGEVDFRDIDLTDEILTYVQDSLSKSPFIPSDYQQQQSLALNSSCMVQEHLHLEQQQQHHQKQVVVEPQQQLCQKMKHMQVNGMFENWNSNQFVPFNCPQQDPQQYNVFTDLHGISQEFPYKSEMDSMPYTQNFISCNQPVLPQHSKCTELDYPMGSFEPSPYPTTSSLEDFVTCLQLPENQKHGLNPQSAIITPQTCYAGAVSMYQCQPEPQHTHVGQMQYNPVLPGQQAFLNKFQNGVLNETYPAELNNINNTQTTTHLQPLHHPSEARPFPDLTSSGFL

| SMILES | EC50 [1] [nM] | IC50 [2] [nM] |
| --- | --- | --- |
| Cc1ccc(-c2ccc3c(C)nn(-c4ccccn4)c3n2)cc1 [compound 105] | 1000 to 5000 | 200 to 500 |
| CCc1cccc2c(-c3cn4cc(S(N)(=O)=O)ccc4n3)c[nH]c12 [compound 100] | < 500 | < 200 |
| Cc1ccc(C(=O)Nc2ccc(-c3nccs3)cc2)cc1 [compound 8] | 1000 to 5000 | 500 to 1000 |
| O=[N+]([O-])c1ccc(/C=N/Nc2nccc(-c3cccnc3)n2)cc1 [compound 113] | 1000 to 5000 | 200 to 500 |
| FC(F)(F)c1nc(N2CCN(c3ncccn3)CC2)c2ccccc2n1 [compound 76] | ≥ 5000 | 200 to 500 |
| CCc1ccc(C(=O)Nc2scc(-c3ccc(Cl)cc3)c2C(N)=O)s1 [compound 43] | 500 to 1000 | 200 to 500 |
| COc1ccccc1C(=O)Nc1cccc(-c2cn3ccsc3n2)c1 [compound 6] | 1000 to 5000 | 500 to 1000 |
| FC(F)(F)Oc1ccc(-c2nnc(-c3cccnc3)o2)cc1 [compound 123] | 1000 to 5000 | 500 to 1000 |
| Cc1ccc(NC(=O)c2cccc(OCc3c(C)noc3C)c2)c(Cl)c1 [compound 3] | 500 to 1000 | 200 to 500 |
| Nc1cc(-c2ccc3c(c2)CCCC3)nn1-c1ccccc1 [compound 92] | ≥ 5000 | 500 to 1000 |
| CC(=O)N1CCN(c2nc3cc(C(F)(F)F)ccc3s2)CC1 [compound 74] | 1000 to 5000 | 500 to 1000 |
| Cc1noc(C)c1C(=O)Nc1ccc2oc(-c3cc(F)ccc3Br)nc2c1 [compound 45] | 500 to 1000 | < 200 |
| CCCCOc1ccc(C(=O)Nc2cccc(C(=O)OCC(C)C)c2)cc1 [compound 9] | ≥ 5000 | 500 to 1000 |
| O=c1[nH]c2ccc(-c3csc(-c4ccccn4)n3)cc2[nH]1 [compound 58] | ≥ 5000 | 500 to 1000 |
| CCCSc1nc(N)c(C(=O)Nc2ccccc2)cc1C#N [compound 16] | < 500 | 200 to 500 |
| CC(=O)N(C)Cc1cccc(NC(=O)c2n[nH]c3ccccc23)c1 [compound 30] | ≥ 5000 | 500 to 1000 |
| Cc1ccc2nc(-c3ccc(Cl)cc3)cc(C(N)=O)c2c1 [compound 116] | < 500 | < 200 |
| CCC(=O)N1CCc2cc(C(=O)Nc3ccn(CCc4ccccn4)n3)ccc21 [compound 47] | 1000 to 5000 | 500 to 1000 |
| O=[N+]([O-])c1ccc(-c2cn3nc(C(F)(F)F)sc3n2)cc1 [compound 68] | 500 to 1000 | 200 to 500 |
| Cc1nc(-c2ccccc2)sc1C(=O)N/N=C/c1cc2ccccc2o1 [compound 115] | 1000 to 5000 | 200 to 500 |
| CCN(C)C(=O)c1cnc(-c2noc3ccccc23)s1 [compound 65] | 1000 to 5000 | 500 to 1000 |
| N#Cc1cn(-c2ccc(Cl)cc2)nc1C(=O)c1cccs1 [compound 91] | < 500 | 200 to 500 |
| Fc1ccc(/C=N\N2CCN(c3ccccn3)CC2)cc1 [compound 77] | ≥ 5000 | 500 to 1000 |
| Cc1ccc(Cl)cc1-n1ccc2nc(N3CCCCC3)ncc2c1=O [compound 134] | 1000 to 5000 | 500 to 1000 |
| Cc1ccc(-n2nnc(-c3nc4ccccc4s3)c2N)cc1 [compound 94] | < 500 | 500 to 1000 |
| N#Cc1cccc(C#N)c1N1CCN(C(=O)Nc2ccccc2)CC1 [compound 79] | ≥ 5000 | 500 to 1000 |

| SMILES | EC50 [1] [nM] | IC50 [2] [nM] |
| --- | --- | --- |
| Cc1ccc(Cc2c(C)nc(Nc3nc(C)c4ccc(C)cc4n3)[nH]c2=O)cc1 [compound 124] | 1000 to 5000 | 200 to 500 |
| N#Cc1nc(NCC(O)c2ccc(OC(F)F)cc2)ccc1Cl (centres unmarked) [compound 88] | 1000 to 5000 | 200 to 500 |
| CC(=O)c1c(C)nc2nc(SCc3cccc(Cl)c3)nn2c1C [compound 125] | 1000 to 5000 | 500 to 1000 |
| c1ccc(-c2nnc(-c3csc(-c4cccnc4)n3)o2)cc1 [compound 57] | 500 to 1000 | 200 to 500 |
| Cc1ccc(NC(=O)c2cn3ccccc3n2)cc1 [compound 21] | 500 to 1000 | 200 to 500 |
| CCc1cc(C(=O)Nc2ccc(SC)cc2)sc1C [compound 38] | 1000 to 5000 | 500 to 1000 |
| O=C1CN(C(=O)c2sc3ccccc3c2Cl)c2ccccc2N1 [compound 132] | 1000 to 5000 | 500 to 1000 |
| Cc1cccc(C(=O)Nc2ccc(-c3nc4ncccc4o3)cc2)c1 [compound 4] | 500 to 1000 | 500 to 1000 |
| COc1ccc(-c2n[nH]c3c2C(=O)CC(c2ccccc2)C3)cc1 (centres unmarked) [compound 117] | < 500 | < 200 |
| CC(C)OCCCn1c(=O)c(-c2cccs2)nc2cc(S(=O)(=O)N3CCOCC3)ccc21 [compound 128] | 1000 to 5000 | 500 to 1000 |
| Cc1noc(C)c1COc1cccc(C(=O)/N=c2/sccn2C)c1 [compound 118] | < 500 | < 200 |
| O=C(N/N=C\c1ccccc1C(F)(F)F)c1n[nH]c2c1CCc1ccccc1-2 [compound 99] | 1000 to 5000 | 500 to 1000 |
| Cc1ccc2nc(-c3ccc(NC(=O)COC(=O)c4ccc(O)cc4O)cc3)sc2c1 [compound 138] | ≥ 5000 | 500 to 1000 |
| O=C(Nc1ccc(-c2nnc3n2CCCCC3)cc1)c1cccc2cccnc12 [compound 24] | 500 to 1000 | 200 to 500 |
| Cc1cn2nc(NCCOc3ccc(F)cc3)sc2n1 [compound 70] | 500 to 1000 | 200 to 500 |
| N#Cc1ccc(-c2ccncc2)nc1SCc1ccccn1 [compound 89] | < 500 | 500 to 1000 |
| Cc1ccc(-c2c(C)sc(NC(=O)c3cccnc3)c2C(N)=O)cc1 [compound 42] | 1000 to 5000 | 500 to 1000 |
| Cn1cnnc1Sc1ccc(NC(=O)c2cc(Br)ccc2F)cc1 [compound 7] | 1000 to 5000 | 500 to 1000 |
| Cc1cc(C(=O)NNC(=O)c2cnn(-c3ccccc3C)c2C(F)(F)F)c(C)o1 [compound 139] | ≥ 5000 | 500 to 1000 |
| COc1cc(C(F)(F)F)ccc1C(=O)Nc1cccc(N2CCOCC2)c1 [compound 1] | 500 to 1000 | 200 to 500 |
| Cc1cc(Oc2ncccc2C#N)ccc1NC(=O)c1oc(Br)cc1C [compound 26] | 1000 to 5000 | 200 to 500 |
| FC(F)(F)c1ccnc(N/N=C/c2ccc(Cl)cc2Cl)n1 [compound 114] | 1000 to 5000 | 500 to 1000 |
| COc1ccccc1-c1nnc(SCc2cccc3ccccc23)n1C [compound 96] | 1000 to 5000 | 500 to 1000 |
| CC(C)c1cc(-c2nnc3sc(-c4ccccn4)nn23)[nH]n1 [compound 72] | 500 to 1000 | 200 to 500 |
| COc1c(C)cccc1C(=O)Nc1cc(-c2ccc(F)cc2)nn1C [compound 11] | 1000 to 5000 | 500 to 1000 |
| CSc1ccc(N2C(=O)C3Cc4ccccc4CN3C2=O)cc1 (centres unmarked) [compound 120] | 500 to 1000 | 200 to 500 |
